This passage reports Activity and Ratio results from ChEMBL document CHEMBL1151563, “Synthesis of sialic acid-lipid conjugates and their neuritogenic effects on N1E.115 neuroblastoma cells” (1995).

Test [1] concerns N1E-115. Put plainly: In neutral red (NR) assay the cell number relative to control was determined at 1 uM; value ranges from 95-105. It is filed as functional, Mus musculus.
Test [2] concerns N1E-115. Put plainly: Neuritogenic activity of compound was determined at 1 uM; value ranges from 95-105. Format: functional, Mus musculus.
In test [3] the test system is N1E-115. The test can be described thus: Effect of compound on neurite outgrowth by measuring presence of cytoskeletal component in neurofilament (NF) ELISA assay at 1 uM; value ranges from 95-105. Format: functional, Mus musculus. Background: In an ELISA, binding on a coated surface is turned into a signal by an enzyme label.
Test [4] relates to N1E-115. Put plainly: Effect of compound on neurite outgrowth by measuring presence of cytoskeletal component in neurofilament (NF) ELISA assay at 3 uM; value ranges from 75-85. Format: functional, Mus musculus.
Test [5] has as its system N1E-115. Put plainly: Neuritogenic activity of compound was determined at 3 uM; value ranges from 105-115. It is filed as functional, Mus musculus.
Test [6] in a line: NF/NR ratio is average amount of neurofilament per cell was determined at 1 uM; value ranges from 95-105. Format: functional.
Test [7] can be described thus: NF/NR ratio is average amount of neurofilament per cell was determined at 3 uM; value ranges from 105-115. Format: functional.
In test [8] the test system is N1E-115. The test can be described thus: In neutral red (NR) assay the cell number relative to control was determined at 3 uM; value ranges from 65-75. It is filed as functional, Mus musculus.
For test [9], the system named is N1E-115. The test can be described thus: Effect of compound on neurite outgrowth by measuring presence of cytoskeletal component in neurofilament (NF) ELISA assay at 3 uM; value ranges from 95-105. It is filed as functional, Mus musculus.
Test [10] has as its system N1E-115. Put plainly: In neutral red (NR) assay the cell number relative to control was determined at 1 uM; value ranges from 75-85. Format: functional, Mus musculus.
In test [11] the test system is N1E-115. The test can be described thus: In neutral red (NR) assay the cell number relative to control was determined at 3 uM; value ranges from 75-85. Format: functional, Mus musculus.
Test [12] is described as follows: NF/NR ratio is average amount of neurofilament per cell was determined at 1 uM; value ranges from 105-115. Format: functional.
Test [13] concerns N1E-115. Put plainly: Neuritogenic activity of compound was determined at 1 uM; value ranges from 105-115. It is filed as functional, Mus musculus.
Test [14] concerns N1E-115. The test can be described thus: Neuritogenic activity of compound was determined at 3 uM; value ranges from 115-125. It is filed as functional, Mus musculus.
The nature of test [15]: NF/NR ratio is average amount of neurofilament per cell was determined at 3 uM; value ranges from 115-125. Format: functional.
Test [16] is described as follows: NF/NR ratio is average amount of neurofilament per cell was determined at 3 uM; value ranges from 125-135. Format: functional.
Test [17] has as its system N1E-115. Put plainly: Neuritogenic activity of compound was determined at 3 uM; value ranges from 125-135. It is filed as functional, Mus musculus.
For test [18], the system named is N1E-115. Put plainly: Neuritogenic activity of compound was determined at 3 uM; value ranges from 95-105. Format: functional, Mus musculus.
A short description of test [19]: NF/NR ratio is average amount of neurofilament per cell was determined at 3 uM; value ranges from 95-105. It is filed as functional.

`CC(=O)NC1C(O)CC(OC2CC[C@@]3(C)C(=CCC4[C@@H]5CC[C@H]([C@@H](C)CCCC(C)C)[C@@]5(C)CC[C@@H]43)C2)(C(=O)[O-])OC1[C@@H](O)[C@H](O)CO.[Na+]` (some centres undefined): the Activity in [1] came to 95%; in test [2], 95%; in test [3] it was 95%; in [4], 75%; in [5], 105%; in [8], 65%. The values for the Ratio in test [6] and in test [7] were 95 and 105, respectively.
`CCCCCCCCCCCCCCCCOCOCCCO[C@]1(C(=O)O)C[C@@H](O)[C@@H](NC(C)=O)C([C@@H](O)[C@H](O)CO)O1` (some centres undefined): the Activity is given as 95% in [9]; 95% in test [1]; 95% in test [2]; 95% in test [3]; 105% in test [5]. The Ratio in [6] was found to be 95; in test [7], 105.
Take `CC(=O)NC1C(O)CC(OCCCOCOC2CC[C@@]3(C)C(=CCC4[C@@H]5CC[C@H]([C@@H](C)CCCC(C)C)[C@@]5(C)CC[C@@H]43)C2)(C(=O)[O-])OC1[C@@H](O)[C@H](O)CO.[Na+]` (some centres undefined): the Activity in test [9] was 95%; in test [10], 75%; in test [3] it was 95%; in test [11], 75%; in test [13], 105%; in test [14], 115%. Also, the values for the Ratio in test [12] and in test [15] were 105 and 115, respectively.
With `CCCCCCCCCCCCCCCCOC1(C(=O)[O-])CC(O)C(NC(C)=O)C([C@@H](O)[C@H](O)CO)O1.[Na+]` (some centres undefined), the Activity in test [9] is listed as 95%; in test [10], 75%; in test [3] it was 95%; in [11], 75%; in test [13], 105%; in test [5], 105%. Moreover, the Ratio in test [12] and in test [7] was 105 throughout.
As for `CC(=O)NC1C(O)CC(OCCCOCOCC(COCOCCCOC2(C(=O)[O-])CC(O)C(NC(C)=O)C([C@@H](O)[C@H](O)CO)O2)(COCOCCCOC2(C(=O)[O-])CC(O)C(NC(C)=O)C([C@@H](O)[C@H](O)CO)O2)CO[C@H]2CCC3(C)C(=CCC4[C@@H]3CCC3(C)[C@@H](C(C)CCCC(C)C)CC[C@@H]43)C2)(C(=O)[O-])OC1[C@@H](O)[C@H](O)CO.[Na+].[Na+].[Na+]` (some centres undefined), the Activity in [9] is on record as 95%; in test [3], 95%; in test [11], 85%; in [13], 105%; in test [17] it was 125%. The results for the Ratio in test [12] and in test [16] were 105 and 125, respectively.
With `CC(C)CCC[C@@H](C)[C@H]1CCC2C3CC=C4CC(C(C(=O)O)C(=O)O)CC[C@]4(C)C3CC[C@@]21C` (some centres undefined), the Activity in test [9], in test [2], in [3] and in [18] was 95% each time. Moreover, the Ratio in test [6] and in test [19] was 95 throughout.
